Source: US10336732B2, “1-heterocyclyl isochromanyl compounds and analogs for treating CNS disorders” (Sunovion Pharmaceuticals Inc., priority 2015, dated 2019)

What follows are molecules tested on mice (assay: Neuropharmacological assay (SmartCube), behavioral signature of compound-treated mice). Conditions: i.p. 15 min before behavioral test, most efficacious dose(s) of 3 doses.
Type: in vivo
Outline: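 Read-out is an automated video-based behavioral signature, scored as per-class probabilities (e.g., anxiolytic, antidepressant) against reference compounds. Dosing was i.p. at three doses, 15 min pre-test, in NMP, polyethylene glycol and propylene glycol. Values shown are from the most efficacious dose(s).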

Structure (SMILES) | AD: ADHD (probability that behavioral signature matches class) | AG: analgesic (probability that behavioral signature matches class) | AX: anxiolytic (probability that behavioral signature matches class) | CE: cognitive enhancer (probability that behavioral signature matches class) | DP: anti-depressant (probability that behavioral signature matches class) | HA: hallucinogen (probability that behavioral signature matches class) | MS: mood stabilizer (probability that behavioral signature matches class) | PS: anti-psychotic (probability that behavioral signature matches class) | SD: sedative hypnotic (probability that behavioral signature matches class) | UN: uncharacterized CNS activity (probability that behavioral signature matches class)
FC1(F)CN[C@H]([C@@H]2OCCc3ccccc32)C1 [Compound I-64, (S)-4,4-difluoro-2-((R)-isochroman-1-yl)pyrrolidine] | + (LOQ ≤ + <5%) | + (LOQ ≤ + <5%) | ++ (5% ≤ ++ <25%) | + (LOQ ≤ + <5%) | + (LOQ ≤ + <5%) | + (LOQ ≤ + <5%) | + (LOQ ≤ + <5%) | + (LOQ ≤ + <5%) | + (LOQ ≤ + <5%) | + (LOQ ≤ + <5%)
CC1(C)Cc2ccccc2[C@@H]([C@@H]2CCCN2)O1 [Compound I-65, (S)-2-((S)-3,3-dimethylisochroman-1-yl)pyrrolidine] | + (LOQ ≤ + <5%) | +++ (25% ≤ +++ <50%) | ++ (5% ≤ ++ <25%) | ++ (5% ≤ ++ <25%) | ++ (5% ≤ ++ <25%) | + (LOQ ≤ + <5%) | + (LOQ ≤ + <5%) | ++ (5% ≤ ++ <25%) | ++ (5% ≤ ++ <25%) | + (LOQ ≤ + <5%)
CC1(C)Cc2ccccc2[C@H]([C@@H]2CCCN2)O1 [Compound I-66, (S)-2-((R)-3,3-dimethylisochroman-1-yl)pyrrolidine] | + (LOQ ≤ + <5%) | ++ (5% ≤ ++ <25%) | ++ (5% ≤ ++ <25%) | ++ (5% ≤ ++ <25%) | ++ (5% ≤ ++ <25%) | + (LOQ ≤ + <5%) | + (LOQ ≤ + <5%) | +++ (25% ≤ +++ <50%) | + (LOQ ≤ + <5%) | ++ (5% ≤ ++ <25%)
CC1(C)Cc2ccccc2[C@@H]([C@H]2CCCN2)O1 [Compound I-67, (R)-2-((S)-3,3-dimethylisochroman-1-yl)pyrrolidine] | + (LOQ ≤ + <5%) | + (LOQ ≤ + <5%) | + (LOQ ≤ + <5%) | + (LOQ ≤ + <5%) | + (LOQ ≤ + <5%) | + (LOQ ≤ + <5%) | + (LOQ ≤ + <5%) | + (LOQ ≤ + <5%) | + (LOQ ≤ + <5%) | + (LOQ ≤ + <5%)
CC1(C)Cc2ccccc2[C@H]([C@H]2CCCN2)O1 [Compound I-68, (R)-2-((R)-3,3-dimethylisochroman-1-yl)pyrrolidine] | + (LOQ ≤ + <5%) | + (LOQ ≤ + <5%) | + (LOQ ≤ + <5%) | + (LOQ ≤ + <5%) | + (LOQ ≤ + <5%) | + (LOQ ≤ + <5%) | + (LOQ ≤ + <5%) | + (LOQ ≤ + <5%) | + (LOQ ≤ + <5%) | + (LOQ ≤ + <5%)
CN1CCC[C@H]1[C@@H]1OCCc2cc(F)ccc21 [Compound I-69, (S)-2-((R)-6-fluoroisochroman-1-yl)-1-methylpyrrolidine] | + (LOQ ≤ + <5%) | +++ (25% ≤ +++ <50%) | ++ (5% ≤ ++ <25%) | ++ (5% ≤ ++ <25%) | ++ (5% ≤ ++ <25%) | + (LOQ ≤ + <5%) | + (LOQ ≤ + <5%) | ++ (5% ≤ ++ <25%) | + (LOQ ≤ + <5%) | + (LOQ ≤ + <5%)
CCN1CCC[C@H]1[C@@H]1OCCc2cc(F)ccc21 [Compound I-70, (S)-1-ethyl-2-((R)-6-fluoroisochroman-1-yl)pyrrolidine] | + (LOQ ≤ + <5%) | ++ (5% ≤ ++ <25%) | +++ (25% ≤ +++ <50%) | + (LOQ ≤ + <5%) | ++ (5% ≤ ++ <25%) | + (LOQ ≤ + <5%) | + (LOQ ≤ + <5%) | + (LOQ ≤ + <5%) | + (LOQ ≤ + <5%) | + (LOQ ≤ + <5%)
c1ccc2c(c1)CCO[C@@H]2[C@@H]1CCCCN1 [Compound I-71, (S)-2-((S)-isochroman-1-yl)piperidine] | + (LOQ ≤ + <5%) | + (LOQ ≤ + <5%) | +++ (25% ≤ +++ <50%) | ++ (5% ≤ ++ <25%) | ++ (5% ≤ ++ <25%) | + (LOQ ≤ + <5%) | ++ (5% ≤ ++ <25%) | ++ (5% ≤ ++ <25%) | + (LOQ ≤ + <5%) | + (LOQ ≤ + <5%)
c1ccc2c(c1)CCO[C@H]2[C@@H]1CCCCN1 [Compound I-72, (S)-2-((R)-isochroman-1-yl)piperidine] | + (LOQ ≤ + <5%) | ++ (5% ≤ ++ <25%) | ++ (5% ≤ ++ <25%) | + (LOQ ≤ + <5%) | + (LOQ ≤ + <5%) | + (LOQ ≤ + <5%) | + (LOQ ≤ + <5%) | + (LOQ ≤ + <5%) | + (LOQ ≤ + <5%) | +++ (25% ≤ +++ <50%)

Same assay, conditions: i.p. 15 min before behavioral test, most efficacious dose(s) of 3 doses

Structure (SMILES) | XG: anxiogenic (probability that behavioral signature matches class)
FC1(F)CN[C@H]([C@@H]2OCCc3ccccc32)C1 [Compound I-64, (S)-4,4-difluoro-2-((R)-isochroman-1-yl)pyrrolidine] | + (LOQ ≤ + <5%)
CC1(C)Cc2ccccc2[C@@H]([C@@H]2CCCN2)O1 [Compound I-65, (S)-2-((S)-3,3-dimethylisochroman-1-yl)pyrrolidine] | + (LOQ ≤ + <5%)
CC1(C)Cc2ccccc2[C@H]([C@@H]2CCCN2)O1 [Compound I-66, (S)-2-((R)-3,3-dimethylisochroman-1-yl)pyrrolidine] | + (LOQ ≤ + <5%)
CC1(C)Cc2ccccc2[C@@H]([C@H]2CCCN2)O1 [Compound I-67, (R)-2-((S)-3,3-dimethylisochroman-1-yl)pyrrolidine] | + (LOQ ≤ + <5%)
CC1(C)Cc2ccccc2[C@H]([C@H]2CCCN2)O1 [Compound I-68, (R)-2-((R)-3,3-dimethylisochroman-1-yl)pyrrolidine] | + (LOQ ≤ + <5%)
CN1CCC[C@H]1[C@@H]1OCCc2cc(F)ccc21 [Compound I-69, (S)-2-((R)-6-fluoroisochroman-1-yl)-1-methylpyrrolidine] | + (LOQ ≤ + <5%)
CCN1CCC[C@H]1[C@@H]1OCCc2cc(F)ccc21 [Compound I-70, (S)-1-ethyl-2-((R)-6-fluoroisochroman-1-yl)pyrrolidine] | + (LOQ ≤ + <5%)
c1ccc2c(c1)CCO[C@@H]2[C@@H]1CCCCN1 [Compound I-71, (S)-2-((S)-isochroman-1-yl)piperidine] | + (LOQ ≤ + <5%)
c1ccc2c(c1)CCO[C@H]2[C@@H]1CCCCN1 [Compound I-72, (S)-2-((R)-isochroman-1-yl)piperidine] | ++ (5% ≤ ++ <25%)
